Source: patent US9980943B2, “Methods of treating muscular dystrophy” (BOARD OF REGENTS OF THE NEVADA SYSTEM OF HIGHER EDUCATION, …, priority 2013, dated 2018)

How the values were obtained:
Type in all cases: cell-based, mouse
[1] = tested on: α7 integrin (LacZ reporter in α7βgal+/− myoblasts); assay: Myoblast α7+/LacZ integrin FDG assay (Burkin assay in myoblasts, 96-well); conditions: α7+/LacZ myoblasts, 96-well
[2] = tested on: α7 integrin (LacZ reporter in α7+/LacZ myotubes); assay: Myotube α7 integrin FDG assay (Burkin assay in myotubes, 96-well); conditions: myotubes
[3] = tested on: β-galactosidase in CMV-LacZ C2C12 myotubes; assay: CMV-LacZ secondary screen in C2C12 myotubes (β-Gal stabilizing assay); conditions: C2C12 CMV-LacZ myotubes, fold relative to DMSO
Outline: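 β-gal stabilization was measured in C2C12 myoblasts or myotubes stably transfected with a CMV-driven LacZ construct, using the FDG β-gal assay. Compounds were tested in dose-response at 0.5, 1, 5, 10, 20 and 40 μM, with two replicates per point.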

SMILES	CMV-LACZ in Myotubes, signal relative to DMSO ([3]; 5 uM)	CMV-LACZ in Myotubes, signal relative to DMSO ([3]; 10 uM)	CMV-LACZ in Myotubes, signal relative to DMSO ([3]; 20 uM)	CMV-LACZ in Myotubes, signal relative to DMSO ([3]; 40 uM)	Burkin Assay in Myoblasts, value relative to DMSO ([1]; 0.5 uM)	Burkin Assay in Myoblasts, value relative to DMSO ([1]; 1 uM)	Burkin Assay in Myoblasts, value relative to DMSO ([1]; 5 uM)	Burkin Assay in Myoblasts, value relative to DMSO ([1]; 10 uM)	Burkin Assay in Myoblasts, value relative to DMSO ([1]; 20 uM)	Burkin Assay in Myoblasts, value relative to DMSO ([1]; 40 uM)	Burkin Assay in Myotubes (signal relative to DMSO) ([2]; 0.5 uM)	Burkin Assay in Myotubes (signal relative to DMSO) ([2]; 1 uM)	Burkin Assay in Myotubes (signal relative to DMSO) ([2]; 5 uM)	Burkin Assay in Myotubes (signal relative to DMSO) ([2]; 10 uM)	Burkin Assay in Myotubes (signal relative to DMSO) ([2]; 20 uM)	Burkin Assay in Myotubes (signal relative to DMSO) ([2]; 40 uM)	other results
NC(=O)c1cccnc1Oc1ccc(Cl)cc1Cl [MLS000861434-01]	0.8844	0.8027	0.8429	0.8381													Burkin Assay in Myoblasts, signal relative to DMSO ([1]; 0.5 uM): 0.9464; Burkin Assay in Myoblasts, signal relative to DMSO ([1]; 1 uM): 1.028; Burkin Assay in Myoblasts, signal relative to DMSO ([1]; 5 uM): 0.9133; Burkin Assay in Myoblasts, signal relative to DMSO ([1]; 10 uM): 0.9772; Burkin Assay in Myoblasts, signal relative to DMSO ([1]; 20 uM): 0.8777; Burkin Assay in Myoblasts, signal relative to DMSO ([1]; 40 uM): 0.9322; Burkin Assay in Myotubes, α7 integrin LacZ reporter signal relative to DMSO ([2]; 0.5 uM): 0.9593; Burkin Assay in Myotubes, α7 integrin LacZ reporter signal relative to DMSO ([2]; 1 uM): 1.066; Burkin Assay in Myotubes, α7 integrin LacZ reporter signal relative to DMSO ([2]; 5 uM): 0.9788; Burkin Assay in Myotubes, α7 integrin LacZ reporter signal relative to DMSO ([2]; 10 uM): 1.101; Burkin Assay in Myotubes, α7 integrin LacZ reporter signal relative to DMSO ([2]; 20 uM): 0.8762; Burkin Assay in Myotubes, α7 integrin LacZ reporter signal relative to DMSO ([2]; 40 uM): 1.058
CCCS(=O)(=O)N1CCCC(C(=O)c2cccc(Cl)c2)C1 (centres unmarked) [MLS000862690-01]	0.8684	0.8943	0.9323	1.018	1.029	1.027	1.009	1.004	0.8717	0.9753	1.125	0.9576	0.5941	0.9481	1.0131	1.0763	
COc1cccc(NC(=O)c2ccc3c(c2)CCCC3)c1 [MLS000879190-01]																	fold induction at 0.5 µM ([1]; Mus musculus, Myoblast, 48 h, 0.5 uM, read-out: Burkin Assay in Myoblasts, value relative to DMSO): 1.1; fold induction at 1 µM ([1]; Mus musculus, Myoblast, 48 h, 1 uM, read-out: Burkin Assay in Myoblasts, value relative to DMSO): 1.34; fold induction at 5 µM ([1]; Mus musculus, Myoblast, 48 h, 5 uM, read-out: Burkin Assay in Myoblasts, value relative to DMSO): 1.19; fold induction at 10 µM ([1]; Mus musculus, Myoblast, 48 h, 10 uM, read-out: Burkin Assay in Myoblasts, value relative to DMSO): 1.38; fold induction at 20 µM ([1]; Mus musculus, Myoblast, 48 h, 20 uM, read-out: Burkin Assay in Myoblasts, value relative to DMSO): 1.09; fold induction at 40 µM ([1]; Mus musculus, Myoblast, 48 h, 40 uM, read-out: Burkin Assay in Myoblasts, value relative to DMSO): 1.13; fold induction at 0.5 µM ([2]; Mus musculus, Myotube, 0.5 uM, read-out: Burkin Assay in Myotubes (signal relative to DMSO)): 0.965; fold induction at 1 µM ([2]; Mus musculus, Myotube, 1 uM, read-out: Burkin Assay in Myotubes (signal relative to DMSO)): 1.13; fold induction at 5 µM ([2]; Mus musculus, Myotube, 5 uM, read-out: Burkin Assay in Myotubes (signal relative to DMSO)): 1.05; fold induction at 10 µM ([2]; Mus musculus, Myotube, 10 uM, read-out: Burkin Assay in Myotubes (signal relative to DMSO)): 0.913; fold induction at 20 µM ([2]; Mus musculus, Myotube, 20 uM, read-out: Burkin Assay in Myotubes (signal relative to DMSO)): 1.08; fold induction at 40 µM ([2]; Mus musculus, Myotube, 40 uM, read-out: Burkin Assay in Myotubes (signal relative to DMSO)): 0.849; fold induction at 5 µM ([3]; Mus musculus, C2C12, read-out: CMV-LACZ in Myotubes, signal relative to DMSO, 5 uM): 0.991; fold induction at 10 µM ([3]; Mus musculus, C2C12, read-out: CMV-LACZ in Myotubes, signal relative to DMSO, 10 uM): 1.05; fold induction at 20 µM ([3]; Mus musculus, C2C12, read-out: CMV-LACZ in Myotubes, signal relative to DMSO, 20 uM): 0.85; fold induction at 40 µM ([3]; Mus musculus, C2C12, read-out: CMV-LACZ in Myotubes, signal relative to DMSO, 40 uM): 0.463
O=[N+]([O-])c1cccc(S(=O)(=O)N2CCN(S(=O)(=O)N3CCOCC3)CC2)c1 [MLS000912614-01]	1.018	1.166	0.97	1.012	0.9551	1.088	0.9534	0.94	0.7382	0.7798	1.042	1.024	1.103	1.055	0.775	0.7855	
CC(NC(=O)c1cn(C)c2ccc(S(=O)(=O)N3CCCC3)cc2c1=O)c1ccccc1 (centres unmarked) [MLS000913052-01]	1.115	1.287	0.9154	0.92	1.116	1.038	1.076	1.067	1.113	1.202	1.073	0.9014	1.055	1.013	0.9725	0.8287	
